Each block holds one molecule with its values, some of them ahead of it. The source made the active and inactive calls.
Experiments:
[1] = target: T1, Short transient receptor potential channel 4 (Mus musculus, UniProt Q9QUQ5); experiment: potentiation of DAMGO-evoked TRPC4 calcium signal – cell-based, HEK293 TRPC4/mu-opioid, Fluo-4 calcium, EC20 DAMGO, dose response (AID 434941); format: functional
T1 sequence (Q9QUQ5 whole entry): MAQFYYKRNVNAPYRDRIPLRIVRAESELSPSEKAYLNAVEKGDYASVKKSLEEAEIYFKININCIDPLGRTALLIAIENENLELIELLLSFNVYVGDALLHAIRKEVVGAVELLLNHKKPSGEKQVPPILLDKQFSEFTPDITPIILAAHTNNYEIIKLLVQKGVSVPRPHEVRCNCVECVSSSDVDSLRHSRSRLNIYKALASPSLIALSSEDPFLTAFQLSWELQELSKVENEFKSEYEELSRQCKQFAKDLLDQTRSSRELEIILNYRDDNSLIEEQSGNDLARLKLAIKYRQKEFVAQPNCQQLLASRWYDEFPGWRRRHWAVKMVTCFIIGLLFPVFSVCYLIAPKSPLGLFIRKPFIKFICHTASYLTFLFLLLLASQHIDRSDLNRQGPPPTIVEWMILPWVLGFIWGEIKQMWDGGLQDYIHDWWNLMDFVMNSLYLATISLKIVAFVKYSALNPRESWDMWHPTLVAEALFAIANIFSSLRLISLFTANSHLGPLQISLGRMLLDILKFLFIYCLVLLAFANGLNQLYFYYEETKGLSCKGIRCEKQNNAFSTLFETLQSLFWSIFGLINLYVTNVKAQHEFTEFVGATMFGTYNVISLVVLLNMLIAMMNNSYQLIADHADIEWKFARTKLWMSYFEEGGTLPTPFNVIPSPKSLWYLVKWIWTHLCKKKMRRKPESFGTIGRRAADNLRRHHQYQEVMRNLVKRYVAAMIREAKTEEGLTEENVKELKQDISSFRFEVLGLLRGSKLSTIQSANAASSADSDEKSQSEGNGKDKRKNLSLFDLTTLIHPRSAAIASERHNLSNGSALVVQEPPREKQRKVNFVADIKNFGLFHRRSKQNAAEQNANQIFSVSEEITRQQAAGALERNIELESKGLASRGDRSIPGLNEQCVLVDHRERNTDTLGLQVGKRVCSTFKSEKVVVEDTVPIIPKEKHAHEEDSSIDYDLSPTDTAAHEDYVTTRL

[2] = target: T1, Short transient receptor potential channel 4; experiment: calcium entry via TRPC4 opening agents – cell-based, HEK293 TRPC4/mu-opioid, Fluo-4 calcium, dose response (AID 434937); format: functional
ORF 73 = ORF 73 (Human herpesvirus 8, UniProt O40947); experiment: KSHV LANA DNA-binding disruption – biochemical, fluorescence polarization, cherry-picked samples, dose response (AID 504725); design: species or system Human gammaherpesvirus 8;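 also: fluorescence polarization of a labeled DNA duplex reporting LANA DNA binding; potency is for inhibitors that block LANA binding to the DNA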
[3] = target: T2, Corticotropin-releasing factor receptor 2/Corticotropin-releasing factor-binding protein (Homo sapiens, UniProt P24387+Q13324); experiment: activators of CRF receptor 2 with binding protein – uHTS hits, confirmation (AID 602473); format: functional; settings: read-out: EC50_Mean
T2 sequence (Q13324 whole entry): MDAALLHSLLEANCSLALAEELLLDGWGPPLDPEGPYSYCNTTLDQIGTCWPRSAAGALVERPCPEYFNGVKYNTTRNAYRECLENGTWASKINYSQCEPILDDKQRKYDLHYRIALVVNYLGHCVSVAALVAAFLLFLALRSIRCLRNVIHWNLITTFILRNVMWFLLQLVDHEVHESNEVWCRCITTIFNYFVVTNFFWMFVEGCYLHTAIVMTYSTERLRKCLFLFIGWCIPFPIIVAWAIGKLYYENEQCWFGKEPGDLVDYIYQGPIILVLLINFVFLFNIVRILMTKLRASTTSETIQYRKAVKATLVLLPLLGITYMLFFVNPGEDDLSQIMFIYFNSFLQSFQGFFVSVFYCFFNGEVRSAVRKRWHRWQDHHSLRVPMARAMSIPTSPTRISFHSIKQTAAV
T2 sequence (P24387 whole entry): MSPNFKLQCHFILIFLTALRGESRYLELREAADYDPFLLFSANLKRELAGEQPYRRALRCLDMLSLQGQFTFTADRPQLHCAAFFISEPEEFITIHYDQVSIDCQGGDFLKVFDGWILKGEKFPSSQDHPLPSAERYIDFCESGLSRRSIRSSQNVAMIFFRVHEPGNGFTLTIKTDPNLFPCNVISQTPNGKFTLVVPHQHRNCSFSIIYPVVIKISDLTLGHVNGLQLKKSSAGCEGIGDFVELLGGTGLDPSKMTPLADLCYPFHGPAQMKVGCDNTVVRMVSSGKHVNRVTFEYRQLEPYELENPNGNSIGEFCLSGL

[4] = target: T3, Zinc finger protein mex-5 (Caenorhabditis elegans, UniProt Q9XUB2); experiment: potency of MEX-5 RNA-binding blockers – biochemical, C. elegans, fluorescence polarization, dose response (AID 1960)
T3 sequence (Q9XUB2 whole entry): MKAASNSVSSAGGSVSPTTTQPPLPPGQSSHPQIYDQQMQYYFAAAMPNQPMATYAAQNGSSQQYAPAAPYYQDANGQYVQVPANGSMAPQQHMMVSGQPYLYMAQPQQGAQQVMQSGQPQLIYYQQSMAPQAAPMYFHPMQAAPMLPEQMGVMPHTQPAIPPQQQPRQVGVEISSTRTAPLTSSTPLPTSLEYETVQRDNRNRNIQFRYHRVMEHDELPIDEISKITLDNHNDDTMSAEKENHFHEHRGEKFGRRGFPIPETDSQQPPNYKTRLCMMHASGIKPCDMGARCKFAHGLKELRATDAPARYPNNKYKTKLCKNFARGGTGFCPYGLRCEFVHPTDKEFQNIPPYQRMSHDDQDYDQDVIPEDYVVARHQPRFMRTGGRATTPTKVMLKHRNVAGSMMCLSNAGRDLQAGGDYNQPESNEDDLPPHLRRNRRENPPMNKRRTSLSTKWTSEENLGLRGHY

[5] = target: T4, RNA-binding protein pos-1 (Caenorhabditis elegans, UniProt G5EF15); experiment: disruptors of C. elegans POS-1 RNA interaction – biochemical, fluorescence polarization, dose response (AID 1964);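 also: purified POS-1 fused to maltose binding protein made in E. coli; potency of compounds blocking POS-1 binding to fluorescent RNA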
T4 sequence (G5EF15 whole entry): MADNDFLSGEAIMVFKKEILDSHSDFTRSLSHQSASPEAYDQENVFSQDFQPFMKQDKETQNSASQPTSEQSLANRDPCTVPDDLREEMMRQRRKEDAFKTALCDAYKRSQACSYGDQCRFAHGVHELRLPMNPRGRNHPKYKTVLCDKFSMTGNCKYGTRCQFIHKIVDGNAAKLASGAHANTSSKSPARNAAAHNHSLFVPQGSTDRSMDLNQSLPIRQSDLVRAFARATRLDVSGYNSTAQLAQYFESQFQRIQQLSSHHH

Hexokinase HKDC1 = target: T5, Hexokinase HKDC1 (Homo sapiens, UniProt Q2TB90); experiment: activation of HKDC1 glucose phosphorylation – biochemical, W721R variant, dose response (AID 504730); format: functional
T5 sequence (Q2TB90 whole entry): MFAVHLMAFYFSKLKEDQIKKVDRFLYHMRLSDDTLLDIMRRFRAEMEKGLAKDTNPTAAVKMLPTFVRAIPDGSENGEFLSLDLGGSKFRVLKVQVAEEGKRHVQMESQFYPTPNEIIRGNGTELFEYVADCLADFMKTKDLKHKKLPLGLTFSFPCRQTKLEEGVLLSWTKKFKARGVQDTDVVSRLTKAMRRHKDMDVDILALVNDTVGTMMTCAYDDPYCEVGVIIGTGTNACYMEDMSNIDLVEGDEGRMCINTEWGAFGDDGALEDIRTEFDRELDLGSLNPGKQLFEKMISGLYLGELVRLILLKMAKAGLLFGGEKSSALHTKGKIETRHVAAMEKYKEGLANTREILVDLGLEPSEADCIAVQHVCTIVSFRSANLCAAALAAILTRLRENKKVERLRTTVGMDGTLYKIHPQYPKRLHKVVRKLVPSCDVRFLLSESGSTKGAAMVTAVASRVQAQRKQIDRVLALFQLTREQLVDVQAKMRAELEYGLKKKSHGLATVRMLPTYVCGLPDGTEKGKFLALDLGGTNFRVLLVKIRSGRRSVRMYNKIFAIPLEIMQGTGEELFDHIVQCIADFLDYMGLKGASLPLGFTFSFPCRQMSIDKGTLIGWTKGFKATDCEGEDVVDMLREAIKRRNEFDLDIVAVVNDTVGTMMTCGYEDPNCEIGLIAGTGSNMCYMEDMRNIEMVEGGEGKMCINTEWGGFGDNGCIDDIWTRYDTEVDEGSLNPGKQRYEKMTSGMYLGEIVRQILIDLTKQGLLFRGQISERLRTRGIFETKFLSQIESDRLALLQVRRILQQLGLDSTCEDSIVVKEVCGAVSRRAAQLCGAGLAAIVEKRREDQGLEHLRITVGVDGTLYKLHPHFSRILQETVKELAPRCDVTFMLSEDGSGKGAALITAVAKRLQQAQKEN

Troponin, cardiac muscle = Troponin, cardiac muscle (Homo sapiens, UniProt P19429+P45379+P63316); experiment: Fluorescence-based biochemical high throughput dose response assay for activators of the calcium sensitivity of cardiac Regulated Thin Filaments (RTF). [Related pubchem assays (depositor defined):AID493008, AID493018, AID504382, AID504383]; format: protein-complex assay
[6] = target: Voltage-dependent T-type calcium channel subunit alpha-1H (Homo sapiens, UniProt O95180); experiment: human CACNA1H calcium influx blockade – cell-based, synthetic library set 1, calcium flux (AID 493022); format: functional
Hexokinase = Hexokinase (Trypanosoma brucei, UniProt Q38C41); experiment: Confirmation assay for inhibitors of Trypanosoma brucei hexokinase 1-Analogue-first series. [Related pubchem assays (depositor defined):AID1430, AID1632, AID2516, AID2560, AID2579, AID2600, AID449725, AID492951]; format: functional
Aminopeptidase N = target: T6, Aminopeptidase N (Plasmodium falciparum FcB1/Columbia, UniProt O96935); experiment: malaria alanyl aminopeptidase activity blockers – biochemical, fluorogenic H-Leu-NHMec substrate, 1536-well (AID 1445); design: species or system Plasmodium falciparum 3D7, 3D7
T6 sequence (O96935 whole entry): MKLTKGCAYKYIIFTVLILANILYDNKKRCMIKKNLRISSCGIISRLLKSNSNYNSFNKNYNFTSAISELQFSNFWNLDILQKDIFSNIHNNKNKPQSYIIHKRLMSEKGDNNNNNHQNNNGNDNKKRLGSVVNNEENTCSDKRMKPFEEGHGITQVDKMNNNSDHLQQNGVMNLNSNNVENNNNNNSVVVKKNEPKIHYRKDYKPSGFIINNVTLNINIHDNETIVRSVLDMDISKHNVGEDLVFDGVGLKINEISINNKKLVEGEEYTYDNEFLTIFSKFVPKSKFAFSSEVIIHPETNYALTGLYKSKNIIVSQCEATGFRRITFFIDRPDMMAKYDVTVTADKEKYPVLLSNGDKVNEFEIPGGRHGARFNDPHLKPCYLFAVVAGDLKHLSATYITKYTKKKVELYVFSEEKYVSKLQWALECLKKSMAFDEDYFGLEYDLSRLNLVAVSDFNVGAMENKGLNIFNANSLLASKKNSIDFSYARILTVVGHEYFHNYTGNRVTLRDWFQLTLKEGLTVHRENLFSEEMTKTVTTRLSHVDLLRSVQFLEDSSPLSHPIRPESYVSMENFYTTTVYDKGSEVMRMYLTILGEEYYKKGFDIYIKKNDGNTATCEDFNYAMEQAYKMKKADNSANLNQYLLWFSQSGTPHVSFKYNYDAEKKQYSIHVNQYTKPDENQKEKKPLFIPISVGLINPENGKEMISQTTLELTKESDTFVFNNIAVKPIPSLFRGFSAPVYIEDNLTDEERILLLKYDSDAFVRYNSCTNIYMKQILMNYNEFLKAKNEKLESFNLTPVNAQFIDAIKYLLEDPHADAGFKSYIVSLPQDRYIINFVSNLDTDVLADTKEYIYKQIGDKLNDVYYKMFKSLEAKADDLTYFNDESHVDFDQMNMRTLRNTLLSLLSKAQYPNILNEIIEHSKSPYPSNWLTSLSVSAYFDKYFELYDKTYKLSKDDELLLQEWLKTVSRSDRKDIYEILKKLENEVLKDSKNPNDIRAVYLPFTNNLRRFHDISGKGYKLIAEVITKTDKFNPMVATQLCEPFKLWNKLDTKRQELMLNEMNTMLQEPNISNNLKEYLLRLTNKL

[7] = target: T7, Calpain-2 catalytic subunit (Sus scrofa, UniProt P43367); experiment: m-calpain protease blockers, concentration series – biochemical, fluorogenic peptide substrate, dose response (AID 1420); format: functional
T7 sequence (P43367 whole entry): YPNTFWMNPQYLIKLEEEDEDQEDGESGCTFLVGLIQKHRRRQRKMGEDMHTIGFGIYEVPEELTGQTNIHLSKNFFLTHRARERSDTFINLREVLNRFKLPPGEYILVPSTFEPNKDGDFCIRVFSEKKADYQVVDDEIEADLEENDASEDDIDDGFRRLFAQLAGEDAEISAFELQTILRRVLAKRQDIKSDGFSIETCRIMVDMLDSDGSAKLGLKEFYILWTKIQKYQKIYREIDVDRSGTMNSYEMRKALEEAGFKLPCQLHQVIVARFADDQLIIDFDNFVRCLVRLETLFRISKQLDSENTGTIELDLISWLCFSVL

Chain of Hexokinase (Q38C41 whole entry): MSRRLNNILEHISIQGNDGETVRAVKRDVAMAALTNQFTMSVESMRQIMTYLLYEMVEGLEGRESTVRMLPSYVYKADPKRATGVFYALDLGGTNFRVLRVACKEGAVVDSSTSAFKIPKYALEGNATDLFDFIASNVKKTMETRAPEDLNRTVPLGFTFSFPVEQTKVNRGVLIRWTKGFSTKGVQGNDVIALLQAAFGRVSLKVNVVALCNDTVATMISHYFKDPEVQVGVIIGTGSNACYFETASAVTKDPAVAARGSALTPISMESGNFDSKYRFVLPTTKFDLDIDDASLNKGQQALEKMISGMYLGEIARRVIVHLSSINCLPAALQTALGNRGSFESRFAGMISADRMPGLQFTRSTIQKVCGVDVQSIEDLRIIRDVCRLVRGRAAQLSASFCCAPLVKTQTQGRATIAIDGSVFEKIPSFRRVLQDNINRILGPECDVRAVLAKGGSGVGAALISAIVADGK
Chain of Voltage-dependent T-type calcium channel subunit alpha-1H (O95180 whole entry): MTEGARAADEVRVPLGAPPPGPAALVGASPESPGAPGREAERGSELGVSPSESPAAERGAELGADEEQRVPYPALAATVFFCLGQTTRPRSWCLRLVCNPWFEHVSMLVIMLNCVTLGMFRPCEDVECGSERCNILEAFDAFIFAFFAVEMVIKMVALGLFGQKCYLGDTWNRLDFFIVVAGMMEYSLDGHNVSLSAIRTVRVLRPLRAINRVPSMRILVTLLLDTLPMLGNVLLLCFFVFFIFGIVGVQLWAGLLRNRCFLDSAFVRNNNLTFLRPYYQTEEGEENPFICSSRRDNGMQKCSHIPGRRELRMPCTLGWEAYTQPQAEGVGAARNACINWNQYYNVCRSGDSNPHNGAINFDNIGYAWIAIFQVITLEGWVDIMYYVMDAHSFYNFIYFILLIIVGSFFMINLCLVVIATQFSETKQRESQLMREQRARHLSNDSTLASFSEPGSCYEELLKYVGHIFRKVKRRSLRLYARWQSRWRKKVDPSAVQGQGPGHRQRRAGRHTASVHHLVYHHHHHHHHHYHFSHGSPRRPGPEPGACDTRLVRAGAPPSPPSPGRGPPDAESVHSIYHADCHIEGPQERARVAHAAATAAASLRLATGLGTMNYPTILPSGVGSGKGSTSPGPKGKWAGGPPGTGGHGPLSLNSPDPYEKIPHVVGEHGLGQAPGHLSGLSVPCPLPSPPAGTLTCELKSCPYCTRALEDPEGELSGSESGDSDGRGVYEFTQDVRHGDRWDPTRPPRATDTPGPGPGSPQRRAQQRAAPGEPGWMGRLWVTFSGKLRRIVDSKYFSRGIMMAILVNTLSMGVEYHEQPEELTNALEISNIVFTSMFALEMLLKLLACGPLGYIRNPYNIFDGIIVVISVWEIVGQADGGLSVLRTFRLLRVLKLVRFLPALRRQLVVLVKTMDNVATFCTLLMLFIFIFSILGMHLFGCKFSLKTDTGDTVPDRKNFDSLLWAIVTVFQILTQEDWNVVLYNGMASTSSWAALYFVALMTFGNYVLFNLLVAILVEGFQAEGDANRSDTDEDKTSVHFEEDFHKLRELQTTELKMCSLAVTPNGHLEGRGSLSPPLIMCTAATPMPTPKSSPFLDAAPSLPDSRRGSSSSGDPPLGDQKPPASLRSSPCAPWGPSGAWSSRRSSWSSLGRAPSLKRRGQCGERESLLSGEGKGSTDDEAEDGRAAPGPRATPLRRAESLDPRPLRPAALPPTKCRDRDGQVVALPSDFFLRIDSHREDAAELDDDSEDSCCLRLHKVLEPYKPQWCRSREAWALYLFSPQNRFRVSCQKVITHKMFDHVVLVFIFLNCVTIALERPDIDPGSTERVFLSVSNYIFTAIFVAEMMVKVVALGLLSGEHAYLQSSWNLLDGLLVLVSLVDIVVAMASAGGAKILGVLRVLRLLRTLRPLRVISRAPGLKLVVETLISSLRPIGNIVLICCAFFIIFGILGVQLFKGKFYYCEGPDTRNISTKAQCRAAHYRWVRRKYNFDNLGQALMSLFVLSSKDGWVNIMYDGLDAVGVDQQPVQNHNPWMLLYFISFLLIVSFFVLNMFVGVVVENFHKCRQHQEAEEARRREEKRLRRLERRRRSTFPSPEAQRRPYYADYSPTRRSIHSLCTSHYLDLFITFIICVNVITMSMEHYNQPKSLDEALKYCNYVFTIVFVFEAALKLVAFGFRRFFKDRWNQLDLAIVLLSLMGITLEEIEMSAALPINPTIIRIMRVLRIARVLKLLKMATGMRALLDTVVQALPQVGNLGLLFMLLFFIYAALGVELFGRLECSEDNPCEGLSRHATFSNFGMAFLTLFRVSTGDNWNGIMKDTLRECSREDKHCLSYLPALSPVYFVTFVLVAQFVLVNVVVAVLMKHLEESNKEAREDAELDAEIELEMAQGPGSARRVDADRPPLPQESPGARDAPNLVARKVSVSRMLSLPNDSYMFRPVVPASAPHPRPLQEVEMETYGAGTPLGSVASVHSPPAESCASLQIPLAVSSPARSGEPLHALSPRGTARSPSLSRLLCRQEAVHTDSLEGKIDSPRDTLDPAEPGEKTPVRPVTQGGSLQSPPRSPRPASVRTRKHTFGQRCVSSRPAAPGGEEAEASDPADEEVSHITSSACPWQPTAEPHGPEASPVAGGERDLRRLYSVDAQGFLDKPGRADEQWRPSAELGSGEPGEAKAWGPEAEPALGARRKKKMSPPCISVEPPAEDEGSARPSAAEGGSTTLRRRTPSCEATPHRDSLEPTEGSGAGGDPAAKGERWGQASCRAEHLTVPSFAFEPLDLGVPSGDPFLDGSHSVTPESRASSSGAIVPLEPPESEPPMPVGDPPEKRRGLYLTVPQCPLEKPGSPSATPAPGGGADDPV
Chain of ORF 73 (O40947 whole entry): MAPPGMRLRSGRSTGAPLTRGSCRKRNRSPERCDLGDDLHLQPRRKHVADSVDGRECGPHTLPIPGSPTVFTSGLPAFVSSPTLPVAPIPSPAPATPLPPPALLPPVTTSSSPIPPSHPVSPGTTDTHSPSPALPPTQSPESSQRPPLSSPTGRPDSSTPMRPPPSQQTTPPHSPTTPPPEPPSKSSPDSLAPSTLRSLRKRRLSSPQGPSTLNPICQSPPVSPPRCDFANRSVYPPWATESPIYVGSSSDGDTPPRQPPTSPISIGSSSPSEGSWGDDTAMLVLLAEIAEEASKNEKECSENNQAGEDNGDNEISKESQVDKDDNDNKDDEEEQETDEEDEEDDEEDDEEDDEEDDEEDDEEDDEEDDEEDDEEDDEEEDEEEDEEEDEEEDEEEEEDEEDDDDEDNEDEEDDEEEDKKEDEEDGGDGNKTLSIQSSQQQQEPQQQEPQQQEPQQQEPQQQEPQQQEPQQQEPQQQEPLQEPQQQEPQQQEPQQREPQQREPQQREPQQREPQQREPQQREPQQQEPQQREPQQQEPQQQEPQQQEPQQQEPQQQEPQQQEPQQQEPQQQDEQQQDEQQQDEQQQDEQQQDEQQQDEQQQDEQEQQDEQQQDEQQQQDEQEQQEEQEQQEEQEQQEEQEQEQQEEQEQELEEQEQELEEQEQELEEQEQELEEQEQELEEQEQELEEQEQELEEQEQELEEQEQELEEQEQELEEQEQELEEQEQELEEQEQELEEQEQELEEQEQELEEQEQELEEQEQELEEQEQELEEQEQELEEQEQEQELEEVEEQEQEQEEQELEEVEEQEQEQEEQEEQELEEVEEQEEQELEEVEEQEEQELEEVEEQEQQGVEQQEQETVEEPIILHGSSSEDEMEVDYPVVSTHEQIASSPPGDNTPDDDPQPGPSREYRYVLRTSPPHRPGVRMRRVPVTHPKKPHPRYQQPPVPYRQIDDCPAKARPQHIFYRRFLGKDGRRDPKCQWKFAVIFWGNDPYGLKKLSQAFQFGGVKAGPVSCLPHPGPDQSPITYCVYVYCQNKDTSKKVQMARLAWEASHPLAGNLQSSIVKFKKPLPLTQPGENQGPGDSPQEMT

EC50 [1]: 0.42 µM (active)
EC50 [2]: 5.96 µM (active)
Compound: CCOC(=O)c1c(NC(=O)COC(=O)Cc2c[nH]c3ccccc23)sc(C(=O)N(C)C)c1C

EC50 [1]: 0.67 µM (active)
Compound: COc1ccc(Cl)cc1C(=O)NCCN(C)C

AC50 (ORF 73): 171 µM (active)
EC50 [3]: 8.29 µM (active)
EC50 [4]: 3.36 µM (active)
EC50 [5]: 24.7 µM (inconclusive)
Compound: Clc1ccc(C2=CC(c3ccco3)n3ncnc3N2)cc1 (configuration not stated)

EC50 (Hexokinase HKDC1): > 80 µM (inactive)
Compound: CCN(CC)C(=O)c1ccc(C(=O)c2c(C)cc(C)cc2C)cc1

EC50 (Troponin, cardiac muscle): 2.57 µM (active)
Compound: COc1ccccc1NS(=O)(=O)c1cc([N+](=O)[O-])ccc1N/N=C/c1c(C)[nH]c2ccccc12

EC50 [6]: 1.1 µM (active)
Compound: O=C(COc1ccc(F)cc1Cl)Nc1nnc(-c2ccc(F)c(F)c2)o1

EC50 [6]: 10 µM (active)
Compound: CC(Oc1ccccc1)C(=O)Nc1nnc(-c2ccc3c(c2)OCCO3)o1 (configuration not stated)

Compound: O=C(c1ccccc1)n1sc2ccccc2c1=O
IC50 (Hexokinase): > 25 µM (inactive)

Compound: Cc1ccccc1NC(=O)Cn1sc2ccccc2c1=O
IC50 (Hexokinase): 8.52 µM (active)

EC50 (Hexokinase HKDC1): > 80 µM (inactive)
Compound: COc1ccc(NC(=O)Cc2c[nH]c3ccccc23)cc1S(=O)(=O)N1CCCCC1

IC50 (Aminopeptidase N): 53 µM (active)
IC50 [7]: > 50 µM (not active)
EC50 (Troponin, cardiac muscle): > 71.5 µM (inactive)
Compound: COc1ccc(/C=C/C(=O)NC(=S)Nc2ccc(C(=O)O)cc2)cc1
